Test results reported in US20210060484A1, “PROTON COUPLED ELECTROCHEMICAL CO2 CAPTURE SYSTEM” (President and Fellows of Harvard College, priority 2018, published 2021).

Key:
[1] = solution of zero salinity
[2] = solution of zero salinity; cited from earlier work
[3] = cited from earlier work
[4] = cited from earlier work; remark: listed apart in the source

O=C(O)O [carbonic acid]
first pKa [1]: 6.0 | second pKa [1]: 9.4 | K1, first dissociation constant [2]: 1.1 µM | K2, second dissociation constant [2]: 410 pM

O=C1C=C(S(=O)(=O)O)C=C(S(=O)(=O)O)C1=O [1,2-benzoquinone-3,5-disulfonic acid]
chemical stability in water [3]: chemical instability in water | reported solubility ([4]; organic PCET molecules from the redox-flow battery literature): 3.0 M

c1ccc2nccnc2c1 [quinoxaline]
solubility ([4]; in water and in weakly alkaline aqueous solution): above 4.0 M
